These results are taken from patent US10208081B2, “Bile acid derivatives as FXR/TGR5 agonists and methods of use thereof” (Enanta Pharmaceuticals, Inc., priority 2014, dated 2019).

Some results are limits rather than exact numbers.

This assay deals with human FXR (NR1H4) (Homo sapiens (Human), UniProt Q96RI1). As to the kind of experiment: Human FXR (NR1H4) Assay (Gal4 promoter driven luciferase reporter, Indigo Bioscience kit IB00601). It is filed as cell-based. The following applies: for Efficacy (%): efficacy normalized to CDCA set as 100%; for EC50: potency ranges. In a few lines:
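CHO reporter cells expressing human FXR with Gal4-driven, FXR-responsive luciferase treated with compound doses (0.2% DMSO) for 22 hours at 37° C. Luciferase luminescence then measured as surrogate of FXR activation for potency and efficacy.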
(In a reporter assay the amount or activity of a reporter protein is the signal.)

Chain of human FXR (NR1H4) (Q96RI1 whole entry, the tested form may be a part): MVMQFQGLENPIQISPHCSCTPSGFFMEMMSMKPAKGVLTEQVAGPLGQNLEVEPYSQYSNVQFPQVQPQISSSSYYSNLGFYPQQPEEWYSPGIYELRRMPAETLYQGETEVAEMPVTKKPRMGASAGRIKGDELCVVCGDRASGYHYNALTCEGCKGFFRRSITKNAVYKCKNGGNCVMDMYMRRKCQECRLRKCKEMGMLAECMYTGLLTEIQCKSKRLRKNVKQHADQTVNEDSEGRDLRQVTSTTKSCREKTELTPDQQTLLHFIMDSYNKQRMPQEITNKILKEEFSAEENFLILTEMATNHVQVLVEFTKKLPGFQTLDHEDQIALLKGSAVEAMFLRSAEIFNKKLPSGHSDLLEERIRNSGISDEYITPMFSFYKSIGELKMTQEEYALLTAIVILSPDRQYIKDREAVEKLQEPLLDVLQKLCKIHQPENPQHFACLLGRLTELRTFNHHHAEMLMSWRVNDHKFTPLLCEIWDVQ

With `CC[C@H]1[C@@H](O)[C@@H]2[C@H](CC[C@]3(C)[C@@H]([C@H](C)CCNC(=O)NS(=O)(=O)C4CCCCC4)CC[C@@H]23)[C@@]2(C)CC[C@@H](O)C[C@@H]12` [Example 22], the “Efficacy (%)” value was determined as 477% and the half-maximal effective concentration (EC50) (usually the concentration at which the effect is half-maximal) was less than 0.1 µM.

Regarding `CC[C@H]1[C@@H](O)[C@@H]2[C@H](CC[C@]3(C)[C@@H]([C@H](C)CCNC(=O)NS(=O)(=O)c4cccc(F)c4)CC[C@@H]23)[C@@]2(C)CC[C@@H](O)C[C@@H]12` [Example 51], the “Efficacy (%)” value is given as 319% and the 50% effective concentration (EC50) is less than 0.1 µM. In the case of `CC[C@H]1[C@@H](O)[C@@H]2[C@H](CC[C@]3(C)[C@@H]([C@H](C)CCCCNS(=O)(=O)c4ccccc4)CC[C@@H]23)[C@@]2(C)CC[C@@H](O)C[C@@H]12` [Example 137], the “Efficacy (%)” value is 105% and the EC50 was in the range of 1 to 10 µM. Taken in the same sequence, the figures for `CC[C@H]1[C@@H](O)[C@@H]2[C@H](CC[C@]3(C)[C@@H]([C@H](C)CCNC(=O)NS(=O)(=O)c4cccc(Cl)c4)CC[C@@H]23)[C@@]2(C)CC[C@@H](O)C[C@@H]12` [Example 24] were 421% and less than 0.1 µM. On to `CC[C@H]1[C@@H](O)[C@@H]2[C@H](CC[C@]3(C)[C@@H]([C@H](C)CCNC(=O)NS(=O)(=O)c4cccc(-c5nc(C)cs5)c4)CC[C@@H]23)[C@@]2(C)CC[C@@H](O)C[C@@H]12` [Example 80], for which the “Efficacy (%)” value came to 295% and the half-maximal effective concentration (EC50) is 0.1 to 1 µM. On to `CCCCS(=O)(=O)NC(=O)NCC[C@@H](C)[C@H]1CC[C@H]2[C@@H]3[C@H](O)[C@H](CC)[C@@H]4C[C@H](O)CC[C@]4(C)[C@H]3CC[C@]12C` [Example 90], for which the “Efficacy (%)” value stood at 407% and the EC50 is less than 0.1 µM. Regarding `CC[C@H]1[C@@H](O)[C@@H]2[C@H](CC[C@]3(C)[C@@H]([C@H](C)CCNC(=O)NS(=O)(=O)c4cccc(OC(F)(F)F)c4)CC[C@@H]23)[C@@]2(C)CC[C@@H](O)C[C@@H]12` [Example 50], the “Efficacy (%)” value is 309% and the EC50 was less than 0.1 µM. As to `CC[C@H]1[C@@H](O)[C@@H]2[C@H](CC[C@]3(C)[C@@H]([C@H](C)CNS(=O)(=O)CCC(=O)O)CC[C@@H]23)[C@@]2(C)CC[C@@H](O)C[C@@H]12` [Example 140], the “Efficacy (%)” value is recorded as 1%. As for `CC[C@H]1[C@@H](O)[C@@H]2[C@H](CC[C@]3(C)[C@@H]([C@H](C)CCCNC(=O)NS(=O)(=O)c4ccc(C(C)(C)C)cc4)CC[C@@H]23)[C@@]2(C)CC[C@@H](O)C[C@@H]12` [Example 12], the “Efficacy (%)” value stood at 327% and the EC50 is less than 0.1 µM. `CC[C@H]1[C@@H](O)[C@@H]2[C@H](CC[C@]3(C)[C@@H]([C@H](C)CCNC(=O)NS(=O)(=O)c4ccc(OC)cc4)CC[C@@H]23)[C@@]2(C)CC[C@@H](O)C[C@@H]12` [Example 15]: the “Efficacy (%)” value was 337% and the EC50 was less than 0.1 µM. For `CC[C@H]1[C@@H](O)[C@@H]2[C@H](CC[C@]3(C)[C@@H]([C@H](C)CCNC(=O)NS(=O)(=O)c4ccc5c(c4)CCN5C(C)=O)CC[C@@H]23)[C@@]2(C)CC[C@@H](O)C[C@@H]12` [Example 62], the “Efficacy (%)” value worked out at 476% and the EC50 fell in the range of 1 to 10 µM. With `CC[C@H]1[C@@H](O)[C@@H]2[C@H](CC[C@]3(C)[C@@H]([C@H](C)CCNC(=O)NS(=O)(=O)c4ccc5c(c4)CCCC5)CC[C@@H]23)[C@@]2(C)CC[C@@H](O)C[C@@H]12` [Example 57], the “Efficacy (%)” value is 297% and the EC50 is less than 0.1 µM. As for `CC[C@H]1[C@@H](O)[C@@H]2[C@H](CC[C@]3(C)[C@@H]([C@H](C)CCN(C)C(=O)NS(=O)(=O)c4ccc(C(C)(C)C)cc4)CC[C@@H]23)[C@@]2(C)CC[C@@H](O)C[C@@H]12` [Example 26], the “Efficacy (%)” value came out at 378% and the EC50 was in the range of 0.1 to 1 µM. `CC[C@H]1[C@@H](O)[C@@H]2[C@H](CC[C@]3(C)[C@@H]([C@H](C)CCNC(=O)NS(=O)(=O)N4CCN(C(C)(C)C)CC4)CC[C@@H]23)[C@@]2(C)CC[C@@H](O)C[C@@H]12` [Example 84]: the “Efficacy (%)” value was determined as 351% and the EC50 fell in the range of 0.1 to 1 µM. For `CC[C@H]1[C@@H](O)[C@@H]2[C@H](CC[C@]3(C)[C@@H]([C@H](C)CNS(=O)(=O)c4cccc(N5CCCCC5)c4)CC[C@@H]23)[C@@]2(C)CC[C@@H](O)C[C@@H]12` [Example 142], the “Efficacy (%)” value was determined as 7%.

Turning to `CC[C@H]1[C@@H](O)[C@@H]2[C@H](CC[C@]3(C)[C@@H]([C@H](C)CCNC(=O)NS(=O)(=O)c4cccs4)CC[C@@H]23)[C@@]2(C)CC[C@@H](O)C[C@@H]12` [Example 21], the “Efficacy (%)” value is 402% and the EC50 was 0.1 to 1 µM.

Regarding `CC[C@H]1[C@@H](O)[C@@H]2[C@H](CC[C@]3(C)[C@@H]([C@H](C)CCNC(=O)NS(=O)(=O)c4ccc(-c5cnc(C)o5)cc4C)CC[C@@H]23)[C@@]2(C)CC[C@@H](O)C[C@@H]12` [Example 79], the “Efficacy (%)” value was 249% and the EC50 is 0.1 to 1 µM. Consider `CC[C@H]1[C@@H](O)[C@@H]2[C@H](CC[C@]3(C)[C@@H]([C@H](C)CCNC(=O)N(C)S(=O)(=O)c4ccccc4)CC[C@@H]23)[C@@]2(C)CC[C@@H](O)C[C@@H]12` [Example 56], for which the “Efficacy (%)” value was 295% and the EC50 was 0.1 to 1 µM. `CC[C@H]1[C@@H](O)[C@@H]2[C@H](CC[C@]3(C)[C@@H]([C@H](C)CCNC(=O)NS(=O)(=O)C4CCC(C)(C)CC4)CC[C@@H]23)[C@@]2(C)CC[C@@H](O)C[C@@H]12` [Example 101]: the “Efficacy (%)” value came out at 244% and the 50% effective concentration (EC50) was less than 0.1 µM. The corresponding values for `CC[C@H]1[C@@H](O)[C@@H]2[C@H](CC[C@]3(C)[C@@H]([C@H](C)CNC(=O)NS(=O)(=O)c4cccc(OC(F)(F)F)c4)CC[C@@H]23)[C@@]2(C)CC[C@@H](O)C[C@@H]12` [Example 116] are 322% and less than 0.1 µM. Taken in the same sequence, the figures for `CC[C@H]1[C@@H](O)[C@@H]2[C@H](CC[C@]3(C)[C@@H]([C@H](C)CCNC(=O)NS(=O)(=O)c4ccc5c(c4)OCCO5)CC[C@@H]23)[C@@]2(C)CC[C@@H](O)C[C@@H]12` [Example 58] were 307% and less than 0.1 µM.

On to `CC[C@H]1[C@@H](O)[C@@H]2[C@H](CC[C@]3(C)[C@@H]([C@H](C)CCNC(=O)NS(=O)(=O)N4CCCC4)CC[C@@H]23)[C@@]2(C)CC[C@@H](O)C[C@@H]12` [Example 48], for which the “Efficacy (%)” value was determined as 420% and the EC50 is less than 0.1 µM. On to `CC[C@H]1[C@@H](O)[C@@H]2[C@H](CC[C@]3(C)[C@@H]([C@H](C)CCNC(=O)NS(=O)(=O)N4CCC(C(C)(C)C)CC4)CC[C@@H]23)[C@@]2(C)CC[C@@H](O)C[C@@H]12` [Example 67], for which the “Efficacy (%)” value is 351% and the EC50 was less than 0.1 µM. As for `CC[C@H]1[C@@H](O)[C@@H]2[C@H](CC[C@]3(C)[C@@H]([C@H](C)CNC(=O)NS(=O)(=O)c4ccc(N5CCCCC5)cc4)CC[C@@H]23)[C@@]2(C)CC[C@@H](O)C[C@@H]12` [Example 118], the “Efficacy (%)” value is on record as 267% and the EC50 is less than 0.1 µM.

With `CC[C@H]1[C@@H](O)[C@@H]2[C@H](CC[C@]3(C)[C@@H]([C@H](C)CCNC(=O)NS(=O)(=O)c4ccc(F)cc4)CC[C@@H]23)[C@@]2(C)CC[C@@H](O)C[C@@H]12` [Example 94], the “Efficacy (%)” value is listed as 361% and the EC50 was less than 0.1 µM. In the case of `CC[C@H]1[C@@H](O)[C@@H]2[C@H](CC[C@]3(C)[C@@H]([C@H](C)CNC(=O)NS(=O)(=O)c4ccc5ccccc5c4)CC[C@@H]23)[C@@]2(C)CC[C@@H](O)C[C@@H]12` [Example 32], the “Efficacy (%)” value is 309% and the EC50 was less than 0.1 µM. For `CC[C@H]1[C@@H](O)[C@@H]2[C@H](CC[C@]3(C)[C@@H]([C@H](C)CCNC(=O)NS(=O)(=O)c4ccc(C(=O)O)cc4)CC[C@@H]23)[C@@]2(C)CC[C@@H](O)C[C@@H]12` [Example 120], the “Efficacy (%)” value came out at 198% and the EC50 was in the range of 1 to 10 µM. With `CC[C@H]1[C@@H](O)[C@@H]2[C@H](CC[C@]3(C)[C@@H]([C@H](C)CCNC(=O)NS(=O)(=O)c4cccc(N(C)C)c4)CC[C@@H]23)[C@@]2(C)CC[C@@H](O)C[C@@H]12` [Example 112], the “Efficacy (%)” value is 287% and the EC50 is less than 0.1 µM. Regarding `CC[C@H]1[C@@H](O)[C@@H]2[C@H](CC[C@]3(C)[C@@H]([C@H](C)CCNC(=O)NS(=O)(=O)c4cnn(CC)c4)CC[C@@H]23)[C@@]2(C)CC[C@@H](O)C[C@@H]12` [Example 109], the “Efficacy (%)” value was determined as 219% and the concentration giving a half-maximal response (EC50) fell in the range of 0.1 to 1 µM.

Turning to `CC[C@H]1[C@@H](O)[C@@H]2[C@H](CC[C@]3(C)[C@@H]([C@H](C)CCNC(=O)NS(=O)(=O)c4ccc(-c5ccccc5)s4)CC[C@@H]23)[C@@]2(C)CC[C@@H](O)C[C@@H]12` [Example 108], the “Efficacy (%)” value amounted to 203% and the EC50 fell in the range of 0.1 to 1 µM. As for `CC[C@H]1[C@@H](O)[C@@H]2[C@H](CC[C@]3(C)[C@@H]([C@H](C)CCNC(=O)NS(=O)(=O)N4C[C@H](C)C[C@H](C)C4)CC[C@@H]23)[C@@]2(C)CC[C@@H](O)C[C@@H]12` [Example 97], the “Efficacy (%)” value is on record as 308% and the EC50 is less than 0.1 µM. For `CC[C@H]1[C@@H](O)[C@@H]2[C@H](CC[C@]3(C)[C@@H]([C@H](C)CCNC(=O)NS(=O)(=O)Cc4ccccc4)CC[C@@H]23)[C@@]2(C)CC[C@@H](O)C[C@@H]12` [Example 63], the “Efficacy (%)” value was 452% and the 50% effective concentration (EC50) was 0.1 to 1 µM.
